Converted amounts (≈) assume the structure as drawn.
Legend:
[1] = tested on: other fungi (3 dermatophyte isolates, Aspergillus migatus, Cryptococcus neoformans, Sporothrix schenckii); test: Fungal susceptibility, Panel 2 (example C1); type: cell-based; settings: Panel 2: 6 other fungi (3 dermatophytes, Aspergillus, Cryptococcus neoformans, Sporothrix schenckii); CYG broth; growth below 35% of control
[2] = Water solubility (example D1); type: physicochemical; settings: aqueous buffer, thermodynamic from solid; water buffered with 0.1 M citric acid and 0.2 M Na2HPO4 (pH =4); shaken 1 day at room temperature; UV
Candida spp. [3] = test: Fungal susceptibility, Panel 1 (example C1); type: cell-based; settings: Panel 1: 8 isolates of Candida spp. incl. an azole-resistant C. albicans strain; CYG broth; 37° C. for 48 hours; growth below 35% of control; read-out: geometric mean minimum inhibitory concentration-value (MIC)
Candida spp. [4] = test: Minimum fungicidal concentration (example C2); type: cell-based; settings: 24 Candida isolates; RPMI 1640 buffered with MOPS, 2% glucose; subculture on Sabouraud glucose agar; read-out: Geometric mean minimum fungicidal concentrations
Method: (§1) A panel of 24 Candida isolates, 8 isolates of Aspergillus spp., 8 dermatophytes, 10 Zygomycetes, 10 Fusarium spp., 2 Cryptococcus neoformans and 8 dematiaceous hyphomycetes was used.
(§2) Inocula were prepared as in example C1 but the culture medium used in this test was RPMI 1640 buffered with MOPS, with 2% glucose (Odds, F. C., Antimicrobial Agents and Chemotherapy, 1995, 39, 2051-2060). Test compounds were added to the medium from DMSO solutions to give final concentrations in the series 10, 3.2, 1.0, 0.32, 0.10, 0.032, 0.010,0.0032 and 0.0010 μM. Incubation times and temperatures were as in example C1. Once the microdilution plates had been read for growth turbidity spectrophotometrically, samples of material were removed from the test cultures to inoculate 10 μl volumes on plates of Sabouraud glucose agar. The plates were incubated at 37° C. for 48 hours for yeasts or at other times and temperatures for other species. Geometric mean minimum fungicidal concentrations in μM which were determined as the lowest concentrations of the test compound that completely or substantially eliminated reappearance of fungal growth on the Sabouraud plates

Fusarium spp. = test: Minimum fungicidal concentration (example C2); type: cell-based; settings: 10 Fusarium spp.; RPMI 1640 buffered with MOPS, 2% glucose; subculture on Sabouraud glucose agar; read-out: Geometric mean minimum fungicidal concentrations
Method: as §1, §2

Zygomycetes = test: Minimum fungicidal concentration (example C2); type: cell-based; settings: 10 Zygomycetes; RPMI 1640 buffered with MOPS, 2% glucose; subculture on Sabouraud glucose agar; read-out: Geometric mean minimum fungicidal concentrations
Method: as §1, §2

[5] = Saksena et al., Bioorganic & Medicinal Chemistry Letters (1995), 5(2), 127-132; cited from earlier work

Row | Compound | MIC [1] | solubility at 1 day [2] | MIC (Candida spp. [3]) | MFC (Candida spp. [4]) | MFC (Fusarium spp.) | MFC (Zygomycetes) | activity as antifungal compared to SCH 51048 [5]
1 | C[C@@H](N[C@H](C)[C@H](C)n1ncn(-c2ccc(N3CCN(c4ccc(OC[C@@H]5CO[C@@](Cn6cncn6)(c6ccc(F)cc6F)O5)cc4)CC3)cc2)c1=O)c1ccccc1 (relative stereo) [Compound 86, [2S-[2α,4α[(R*,S*)(S*)]]]-4-[4-[4-[4-[[2-(2,4-difluoropheny)-2-(1H-1,2,4-triazol-1-yl-methyl)-1,3-dioxolan-4-yl]methoxy]phenyl]-1-piperazinyl]phenyl]-2,4-dihydro-2-[2-[(1-phenylethyl)amino]-1-methylpropyl]-3H-1,2,4-triazol-3-one] | 0.01 to 1 µM (≈ 0.00792 to 0.792 µg/mL) | > 100 µg/mL | 0.01 to 1 µM (≈ 0.00792 to 0.792 µg/mL) | 1 to 10 µM (≈ 0.792 to 7.92 µg/mL) | 1 to 10 µM (≈ 0.792 to 7.92 µg/mL) | 1 to 10 µM (≈ 0.792 to 7.92 µg/mL) | –
2 | CN(C)CCn1ncn(-c2ccc(N3CCN(c4ccc(OC[C@@H]5CO[C@@](Cn6cncn6)(c6ccc(F)cc6F)C5)cc4)CC3)cc2)c1=O (relative stereo) [(3R-cis)-4-[4-[4-[4-[[5-(2,4-difluorophenyl)tetrahydro-5-(1H-1,2,4-triazol-1-ylmethyl)-3-furanyl]methoxy]phenyl]-1-piperazinyl]phenyl]-2-[2-(dimethylamino)ethyl]-2,4-dihydro-3H-1,2,4-triazol-3-one] | – | – | – | – | – | – | profoundly less active

— US6384030B1, “Water soluble azoles as broad-spectrum antifungals” (priority 1998, dated 2002)
